From US5587479A, “Basic derivatives of glutamic acid and aspartic acid as gastrin or cholecystokinin antagonists” (priority 1992, dated 1996)
Values after ≈ are worked out from the molar mass of the structure shown. Read-outs that look alike come from different tables or passages of the source.

What was measured:
guinea-pig ureters = assay: Antispastic activity in vitro: spontaneous motility of guinea-pig ureters; conditions: for IC50: Cavia porcellus, five minutes contact, 37° C.
From the text: The isotonic contractions were detected by means of a force transducer and recorded. […] A given concentration of the product under test was then introduced into the bath and left in contact with the prepared specimen for five minutes, after which the ureter was washed until its own spontaneous activity was re-established.

[1] = target: T1, central CCK-B receptors (guinea pig cortical membrane) (Cavia porcellus, UniProt H0VZC5); assay: Inhibition of binding of (3-H)[N-methyl-N-leucine]CCK-8 to guinea pig cortical membranes (anti-CCK-B); conditions: IC50, inhibition of binding of (3-H)[N-methyl-N-leucine]CCK-8 to the guinea pig cortical membrane, 150 minutes at 25° C.
T1 construct: Cerebral cortices of white male guinea pigs were therefore used; from tissue; host or cells: guinea pig cerebral cortex membranes
T1 sequence (H0VZC5 1-426): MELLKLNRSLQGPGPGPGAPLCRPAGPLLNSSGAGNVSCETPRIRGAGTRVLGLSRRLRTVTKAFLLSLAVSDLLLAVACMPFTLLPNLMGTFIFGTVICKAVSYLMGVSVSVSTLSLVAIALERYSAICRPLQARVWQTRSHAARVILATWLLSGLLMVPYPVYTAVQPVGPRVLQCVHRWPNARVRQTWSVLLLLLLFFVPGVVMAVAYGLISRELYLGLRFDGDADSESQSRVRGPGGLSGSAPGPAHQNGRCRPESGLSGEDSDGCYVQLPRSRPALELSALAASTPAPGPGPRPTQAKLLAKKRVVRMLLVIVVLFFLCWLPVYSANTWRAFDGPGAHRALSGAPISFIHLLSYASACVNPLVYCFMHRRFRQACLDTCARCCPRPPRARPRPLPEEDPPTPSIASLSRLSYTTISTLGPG
Description: Cerebral cortices of white male guinea pigs were therefore used, according to the method mentioned above, so as to obtain a membrane content/ml corresponding to about 300 mcg of proteins/mi. The membranes were incubated together with the radioactive tracer and the compounds under test for 150 minutes at 25° C. After the supernatant liquid had been discarded, the radioactivity associated with the pellet was determined with a liquid scintillator.

mouse = assay: Anxiolytic activity in the mouse, Black and White Box test; type: in vivo; conditions: for TOTAL MOV.: five minutes
Description: In order to confirm the hypothesis that the potent activity of some of the compounds of the invention against central CCK-B may be correlated with a possible anxiolytic activity, this potential activity was evaluated in the mouse with the use of the "Black and White Box test". This experimental model, which was carried out according to Costall et al. [Pharm. Biochem. Behav. 32 (1989), 777-785] used a box with dimensions of 45×21×21 (h) cm. divided into two compartments which communicated with each other by means of a 13×5 cm hole. The smaller compartment (1/3 of the total area) had black walls, whereas the larger had transparent walls and was illuminated by a lamp which was placed 20 cm above the box and supplied light at 20 W. Under the floor was an activity meter which registered the movements performed by the animal in the individual compartments. The experiment was started by placing the animal in the centre of the illuminated box; as well at its movements, the time which the animal spent in the dark and in the light and the number of times it moved between the 2 compartments were recorded for five minutes. In general, a control animal tended preferably to stay in the dark compartment where it felt better protected from an unusual enviromental situation which put it in a state of anxiety. In this experimental model ( see the reference cited above), a compound having anxiolytic activity decreased the % of movements into the dark in comparison with the total movements, increased the movements between the two light-dark compartments, and increased the % of the total time time spent in the light. The results obtained are given in Table 5 below in which the activities obtained with the compound 1 (the rectus series ) and its enantiomer 2 (sinister) tested in comparison with diazepam and the CCK-B antagonist L365-260.

[2] = force of the contractions, read-out: IC50 (force), inhibition of the spontaneous motility of guinea-pig ureters in vitro
[3] = frequency of the contractions, read-out: IC50 (frequency), inhibition of the spontaneous motility of guinea-pig ureters in vitro

Molecule CCCCCN(CCCCC)C(=O)[C@@H](CCC(=O)NCCN1CCOCC1)NC(=O)c1ccc(C)c(C)c1 [Compound 45] has an IC50 (guinea-pig ureters; [2]) of 8 µg/mL (≈ 15.1 µM) and an IC50 (guinea-pig ureters; [3]) of 6 µg/mL (≈ 11.3 µM).
For CN1CCN(C(=O)CC[C@@H](NC(=O)c2cccc(Cl)c2)C(=O)N2CCC3(CCCC3)CC2)CC1 [Compound 7], the IC50 [1] was 6.5 µM.
Work on CCCCCN(CCCCC)C(=O)C(CCC(=O)NCCN1CCOCC1)NC(=O)c1ccc(OC)c(OC)c1 (stereo not drawn) [Compound 35] yielded an IC50 (guinea-pig ureters; [2]) of 18 µg/mL (≈ 32 µM) and an IC50 (guinea-pig ureters; [3]) of 16 µg/mL (≈ 28.4 µM).
With CCCCCN(CCCCC)C(=O)C(CCC(=O)NCCN(CC)CC)NC(=O)c1ccc(C)c(C)c1 (stereo not drawn) [Compound 42] the IC50 (guinea-pig ureters; [2]) was 18 µg/mL (≈ 34.8 µM) and the IC50 (guinea-pig ureters; [3]) was 22 µg/mL (≈ 42.6 µM).
Work on CN(C)CCNC(=O)CC[C@@H](NC(=O)c1cc(Cl)cc(Cl)c1)C(=O)N1CCC2(CCCC2)CC1 [Compound 4] yielded an IC50 (guinea-pig ureters; [3]) of 121 µg/mL (≈ 237 µM) and an IC50 [1] of 12.5 µM.
For CCCCCN(CCCCC)C(=O)[C@H](CCC(=O)NCCN1CCOCC1)NC(=O)c1ccc(C)c(C)c1 [Compound 46], the “activity on guinea-pig ureters (in words)” value (guinea-pig ureters) was “extremely active”, the IC50 (guinea-pig ureters; [2]) was 1.6 µg/mL (≈ 3.01 µM) and the IC50 (guinea-pig ureters; [3]) was 1.5 µg/mL (≈ 2.83 µM). For the same molecule, the “activity relative to Verapamil” value (guinea-pig ureters; guinea-pig ureters) was “about twice” and the “times more active than Papaverine and Flavexate” value (guinea-pig ureters; guinea-pig ureters) was “about 20 times”.
Molecule CCCCCN(CCCCC)C(=O)C(CCC(=O)NCCCN(C)C)NC(=O)c1ccc(C)c(C)c1 (stereo not drawn) [Compound 41] has an IC50 (guinea-pig ureters; [2]) of 20 µg/mL (≈ 39.8 µM) and an IC50 (guinea-pig ureters; [3]) of 28 µg/mL (≈ 55.7 µM).
With CCCCN(CCCC)C(=O)C(CCC(=O)NCCN1CCOCC1)NC(=O)c1ccc(C)c(C)c1 (stereo not drawn) [Compound 28] the IC50 (guinea-pig ureters; [2]) was 18 µg/mL (≈ 35.8 µM) and the IC50 (guinea-pig ureters; [3]) was 43 µg/mL (≈ 85.5 µM).
CCCCCN(CCCCC)C(=O)C(CCC(=O)NCCCN1CCOCC1)NC(=O)c1ccc(C)c(C)c1 (stereo not drawn) [Compound 47] was tested, and the IC50 (guinea-pig ureters; [2]) was 12 µg/mL (≈ 22 µM) and the IC50 (guinea-pig ureters; [3]) was 15 µg/mL (≈ 27.5 µM).
In the case of CCCCCN(CCCCC)C(=O)C(CCC(=O)NCCN1CCOCC1)NC(=O)c1ccccc1 (stereo not drawn) [Compound 32], the IC50 (guinea-pig ureters; [3]) is reported as 22 µg/mL (≈ 43.8 µM).
CCCCN(CCCC)C(=O)C(CCC(=O)NCCCN(C)C)NC(=O)c1ccc(C)c(C)c1 (stereo not drawn) [Compound 27] showed an IC50 (guinea-pig ureters; [2]) of 33 µg/mL (≈ 69.5 µM).
CCCCCN(CCCCC)C(=O)C(CCC(=O)NCCN1CCOCC1)NC(=O)c1ccc(C(C)C)cc1 (stereo not drawn) [Compound 36] was tested, and the “activity on guinea-pig ureters (in words)” value (guinea-pig ureters) was “extremely active”, the IC50 (guinea-pig ureters; [2]) was 2 µg/mL (≈ 3.67 µM) and the IC50 (guinea-pig ureters; [3]) was 1.5 µg/mL (≈ 2.75 µM). For the same molecule, the IC50 [1] was 81.3 µM.
CN1CCN(CCNC(=O)CC[C@@H](NC(=O)c2cc(Cl)cc(Cl)c2)C(=O)N2CCC3(CCCC3)CC2)CC1 [Compound 6] showed an IC50 [1] of 3.3 µM.
For CCCCCN(CCCCC)C(=O)C(CCC(=O)NCCN(C)C)NC(=O)c1ccc(C)c(C)c1 (stereo not drawn) [Compound 40], the IC50 (guinea-pig ureters; [2]) was 27 µg/mL (≈ 55.2 µM) and the IC50 (guinea-pig ureters; [3]) was 44 µg/mL (≈ 90 µM).
With CCCCCN(CCCCC)C(=O)C(CCC(=O)NCCN1CCOCC1)NC(=O)c1ccc(C)c(C)c1 (racemic) [Compound 44, (RS) 1-[4'-(ethylenamino)morpholinyl]-1-oxo-4-[(3,4-dimethylbenzoyl)-amino]-5-(dipentylamino) -5-oxopentane] the “activity on guinea-pig ureters (in words)” value (guinea-pig ureters) was “extremely active”, the IC50 (guinea-pig ureters; [2]) was 5 µg/mL (≈ 9.42 µM) and the IC50 (guinea-pig ureters; [3]) was 4 µg/mL (≈ 7.54 µM). For the same molecule, the IC50 [1] was 65.4 µM.
CN1C(=O)CN=C(c2ccccc2)c2cc(Cl)ccc21 [DIAZEPAM, diazepam, reference compound] was tested, and the “LIGHT TIME (%) TOTAL TIME” value (mouse; 1 mg/kg IP) was 29.3%, the “LIGHT TIME (%) TOTAL TIME: % EFF.VS CONTROL” value (mouse; 1 mg/kg IP) was 19% and the “LIGHT-DARK MOVEMENTS” value (mouse; 1 mg/kg IP) was 19.9. The “LIGHT-DARK MOVEMENTS: % EFF. VS CONTROL” value (mouse; 1 mg/kg IP) was “+37.2%”, the “MOV. DARK (%) TOTAL MOV.” value (mouse; 1 mg/kg IP) was 53% and the “MOV. DARK (%) TOTAL MOV.: % EFF. VS CONTROL” value (mouse; 1 mg/kg IP) was -5%. The “TOTAL MOV.” value (mouse; 1 mg/kg IP) was 508, the “LIGHT TIME (%) TOTAL TIME” value (mouse; 3 mg/kg IP) was 33.6% and the “LIGHT TIME (%) TOTAL TIME: % EFF.VS CONTROL” value (mouse; 3 mg/kg IP) was 36.7%. The “LIGHT-DARK MOVEMENTS” value (mouse; 3 mg/kg IP) was 22.3, the “LIGHT-DARK MOVEMENTS: % EFF. VS CONTROL” value (mouse; 3 mg/kg IP) was “+53.8%” and the “MOV. DARK (%) TOTAL MOV.” value (mouse; 3 mg/kg IP) was 52%. The “MOV. DARK (%) TOTAL MOV.: % EFF. VS CONTROL” value (mouse; 3 mg/kg IP) was -7%, the “TOTAL MOV.” value (mouse; 3 mg/kg IP) was 539 and the “anxiolytic activity in the Black and White Box test (in words)” value (mouse; IP) was “active in a dose-dependent manner for all the parameters tested”.
